Experimental data reported in ChEMBL document CHEMBL1141925, “Carbonic anhydrase inhibitors. Inhibition of the cytosolic and tumor-associated carbonic anhydrase isozymes I, II, and IX with a series of 1,3,4-thiadiazole- and 1,2,4-triazole-thiols” (Bioorg Med Chem Lett, 2005).

Key:
Carbonic anhydrase 9 = Carbonic anhydrase 9 (Homo sapiens, UniProt Q16790); assay: Inhibitory constant against human Carbonic anhydrase IX
Carbonic anhydrase 1 = Carbonic anhydrase 1 (Homo sapiens, UniProt P00915)
Carbonic anhydrase 2 = Carbonic anhydrase 2 (Homo sapiens, UniProt P00918)
Description: Inhibitory constant against human Carbonic anhydrase II

Carbonic anhydrase 1, sequence (P00915 whole entry): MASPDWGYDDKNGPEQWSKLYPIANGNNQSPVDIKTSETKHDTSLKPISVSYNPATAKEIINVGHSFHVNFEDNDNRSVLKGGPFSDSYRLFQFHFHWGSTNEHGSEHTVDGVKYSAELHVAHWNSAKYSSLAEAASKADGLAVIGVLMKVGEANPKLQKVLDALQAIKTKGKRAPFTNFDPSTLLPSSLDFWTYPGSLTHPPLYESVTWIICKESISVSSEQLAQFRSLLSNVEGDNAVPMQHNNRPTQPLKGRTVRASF

| Structure (SMILES) | Ki (Carbonic anhydrase 9) | Ki (Carbonic anhydrase 1) | Ki (Carbonic anhydrase 2) |
| --- | --- | --- | --- |
| O=C(Nc1nnc(S)s1)N(c1ccccc1)c1ccccc1 | 271 µM |  |  |
| CCCCn1c(S)nnc1-c1ccc(S(=O)(=O)c2ccccc2)cc1 |  | 415 µM | 604 µM |
| CCCn1c(-c2ccc(S(=O)(=O)c3ccc(Br)cc3)cc2)n[nH]c1=S | 772 µM | 508 µM | 382 µM |
| O=[N+]([O-])c1ccc(SNc2n[nH]c(=S)s2)cc1 | 256 µM |  |  |
| CCCCn1c(-c2ccc(S(=O)(=O)c3ccc(Br)cc3)cc2)n[nH]c1=S | 11.5 µM |  |  |
| CC(=O)Nc1nnc(S)s1 | 9.5 µM | 4.5 µM | 8.8 µM |
| O=C(Nc1nnc(S)s1)NS(=O)(=O)Nc1nnc(S)s1 | 322 µM |  |  |
| CN(C)c1cccc2c(S(=O)(=O)Nc3nnc(S)s3)cccc12 | 296 µM |  |  |
| CCCCn1c(-c2ccc(S(=O)(=O)c3ccc(Cl)cc3)cc2)n[nH]c1=S | 96.8 µM | 273 µM | 227 µM |
| Nc1nnc(S)s1 | 9.3 µM |  |  |
| O=C(Nc1nnc(S)s1)c1ccccn1 | 306 µM |  |  |
| O=C(Nc1ccc(Cl)c(Cl)c1)Nc1nnc(S)s1 | 271 µM |  |  |
| Cc1ccc(-n2c(-c3ccc(S(=O)(=O)c4ccc(Br)cc4)cc3)n[nH]c2=S)cc1 | 60.4 µM | 249 µM | 251 µM |
| Cc1cccc(-n2c(-c3ccc(S(=O)(=O)c4ccc(Br)cc4)cc3)n[nH]c2=S)c1 | 320 µM | 254 µM | 301 µM |
| O=C(Nc1nnc(S)s1)c1c(F)c(F)c(F)c(F)c1F | 312 µM | 308 µM | 129 µM |
| CCCn1c(-c2ccc(S(=O)(=O)c3ccc(Cl)cc3)cc2)n[nH]c1=S | 9.8 µM | 548 µM | 618 µM |
| CCCn1c(S)nnc1-c1ccc(S(=O)(=O)c2ccccc2)cc1 | 119 µM | 290 µM | 276 µM |
| O=[N+]([O-])c1ccccc1S(=O)(=O)Nc1n[nH]c(=S)s1 | 315 µM | 303 µM | 230 µM |
| O=C(O)c1cccnc1C(=O)Nc1nnc(S)s1 | 242 µM |  |  |
